Values quoted from earlier work, collected in patent publication US6479068B1, “Therapeutic nutrient regimen for alleviating mucositis, stomatitis and cachexia in oncology patients” (Baxter International Inc., priority 2000, dated 2002).

Conditions: in vivo

Question: With `[Se]` [Selenium, selenium] as the compound, how does the absorption read?
Answer: 50-100%
